Measured values as given in patent US8795977B2, “Method for screening a potential modulator compound of a taste receptor” (Conopco, Inc., priority 2009, dated 2014).

Biological target: T1, T1R1/T1R3 umami receptor (Homo sapiens, UniProt Q7RTX0+Q7RTX1, C757R)
T1 construct: expressed in transfected cells; host or cells: HEK293 cells stably expressing Gα15, transiently transfected
T1 sequence (Q7RTX1 21-841): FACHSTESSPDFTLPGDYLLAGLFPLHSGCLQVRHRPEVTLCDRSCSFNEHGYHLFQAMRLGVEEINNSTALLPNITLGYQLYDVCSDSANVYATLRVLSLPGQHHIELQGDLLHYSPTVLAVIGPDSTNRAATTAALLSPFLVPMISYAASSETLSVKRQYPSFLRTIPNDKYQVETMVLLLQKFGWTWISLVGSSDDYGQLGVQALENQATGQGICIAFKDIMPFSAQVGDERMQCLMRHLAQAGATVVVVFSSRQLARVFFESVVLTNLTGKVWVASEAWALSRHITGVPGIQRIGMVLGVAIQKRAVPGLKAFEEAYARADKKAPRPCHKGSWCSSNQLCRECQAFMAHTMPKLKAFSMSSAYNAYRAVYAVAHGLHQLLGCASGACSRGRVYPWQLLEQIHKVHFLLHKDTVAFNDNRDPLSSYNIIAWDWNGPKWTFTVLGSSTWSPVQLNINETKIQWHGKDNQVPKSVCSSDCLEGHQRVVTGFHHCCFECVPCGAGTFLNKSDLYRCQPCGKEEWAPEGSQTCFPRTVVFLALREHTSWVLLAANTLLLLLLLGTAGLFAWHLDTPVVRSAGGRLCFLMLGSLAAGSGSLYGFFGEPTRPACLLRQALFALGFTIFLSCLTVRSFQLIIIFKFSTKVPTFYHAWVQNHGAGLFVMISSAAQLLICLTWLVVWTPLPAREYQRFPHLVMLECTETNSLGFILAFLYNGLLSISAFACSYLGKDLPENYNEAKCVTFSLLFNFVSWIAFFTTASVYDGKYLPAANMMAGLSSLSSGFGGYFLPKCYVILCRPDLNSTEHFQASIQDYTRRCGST
T1 sequence (Q7RTX0 21-852 C757R): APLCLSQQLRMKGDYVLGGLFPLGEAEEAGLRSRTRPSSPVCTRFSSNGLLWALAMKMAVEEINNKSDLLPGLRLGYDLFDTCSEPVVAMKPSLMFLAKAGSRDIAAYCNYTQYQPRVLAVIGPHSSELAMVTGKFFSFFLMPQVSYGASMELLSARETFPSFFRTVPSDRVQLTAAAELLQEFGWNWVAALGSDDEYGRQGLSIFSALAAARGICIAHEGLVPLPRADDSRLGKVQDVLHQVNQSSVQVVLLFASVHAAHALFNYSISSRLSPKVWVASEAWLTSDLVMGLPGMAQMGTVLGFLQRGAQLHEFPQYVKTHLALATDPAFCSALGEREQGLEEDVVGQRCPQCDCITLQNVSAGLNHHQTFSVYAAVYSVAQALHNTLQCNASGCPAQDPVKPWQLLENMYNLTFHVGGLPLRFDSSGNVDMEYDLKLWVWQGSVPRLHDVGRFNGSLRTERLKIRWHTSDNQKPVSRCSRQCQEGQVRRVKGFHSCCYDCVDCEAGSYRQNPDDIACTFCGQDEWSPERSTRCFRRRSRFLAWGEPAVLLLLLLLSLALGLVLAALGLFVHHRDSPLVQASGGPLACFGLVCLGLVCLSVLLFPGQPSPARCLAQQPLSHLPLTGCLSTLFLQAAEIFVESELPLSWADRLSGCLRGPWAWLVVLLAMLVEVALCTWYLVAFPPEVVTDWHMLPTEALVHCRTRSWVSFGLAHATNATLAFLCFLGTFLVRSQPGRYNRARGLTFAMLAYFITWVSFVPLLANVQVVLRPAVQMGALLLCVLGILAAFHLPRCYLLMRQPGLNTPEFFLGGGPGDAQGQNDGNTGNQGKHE
Assay: Calcium-based receptor assay (release of intracellular calcium, Fluo-4-AM)
Type: cell-based
Design: key to T1R1/T1R3 receptor-specific signal, Calcium assay: +: For the calcium assay, cells expressing the umami receptor and Gα15 are compared with cells expressing Gα15 only; the difference between these signals is defined as umami receptor-specific signal; −: it was not possible to achieve umami receptor-specific signals using representative extracts and other complex mixtures using the calcium-based receptor assay
Settings: for release of intracellular calcium, T1R1/T1R3 umami receptor, average / release of intracellular calcium, T1R1/T1R3 umami receptor, meas. 1 / release of intracellular calcium, T1R1/T1R3 umami receptor, meas. 2: change in fluorescence (ΔF)
Procedure: FIG. 1 Activation of the T1R1/T1R3 umami receptor expressed in HEK293-Gα15 cells as measured by monitoring the release of intracellular calcium using the calcium fluorescent marker Fluo-4-AM as described in Example 2. Activity of the umami receptor was measured as the change in fluorescence which was calculated by subtracting the […]. Test solutions comprise extracts as indicated and prepared as described in Example 2. […]
We developed a unique functional umami receptor assay to evaluate and quantify umami in tomato and other crude plant or food extracts using the BRET technique: to test the principle we used the donor and acceptor proteins relating to BRET-2. In short, the human T1R1 and T1R3 taste receptors were cloned and fused with Renilla luciferase (Rluc) as donor protein; green fluorescent protein-2 (GFP2) served as acceptor protein and was fused to β-arrestin-2. Both constructs were transfected into a HEK293 cell line cells) for heterologous expression of the proteins. Various mammalian cell lines have been reported to be highly suitable for expression of receptors or other proteins, with HEK293 (human embryonic kidney) cells and CHO (Chinese hamster ovary) cells being some of the most versatile and suitable ones^12. Similarly, GPCRs can be expressed in various ways as described in multiple publications, such as transient^6, 8, 13-15 or stable (constitutive or inducible)^6, 9, 16, 17 expression, depending on the nature of the experiment, the respective receptor or the available time. Upon receptor stimulation with an agonist or crude extracts, the β-arrestin-2/GFP-2 protein interacts with the activated receptor thus bringing GFP-2 in close proximity with luciferase, making energy transfer between these two proteins possible and generating a BRET signal. In the presence of oxygen the luciferase catalyses the transformation of the substrate DeepBlueC into coelenteramide, which can be measured at 395-410 nm. If GFP-2 is in close proximity to the luciferase and energy transfer takes place, the emission will shift to 510 nm; this is referred to as the BRET signal and is expressed as ratio between the acceptor (GFP-2) and the donor (Renilla luciferase). The following experiments are designed to illustrate that conventional calcium-based functional receptor assays are not suitable for measuring the effects of crude extracts; in contrast, the BRET assay (as indicated here with umami) can clearly measure specific receptor responses using crude natural extracts. Moreover, the assay is also sensitive enough for detecting differences of receptor activation between the different tomato samples. Materials & Methods: Chemicals and Media: Fluo-4 AM was from Molecular Probes (# F-14202, prepared as 5 mM stock in DMSO), DMEM (with 4.5 g/l glucose and ultraglutamine, # BE12-604F) was from Lonza, trypsin-EDTA, Lipofectamine 2000, OptiMem and FCS were obtained from Life Technologies Invitrogen. Monosodium glutamate (MSG), Inosine 5′-monophosphate as well as all other chemicals were from Sigma-Aldrich. The plasmid encoding GFP2-β-arrestin-2 was purchased from BioSignal Packard (#6310176). Coelenterazine 400A (a DeepBlueC derivative) and Coelenterazine-H were from VWR International (# BTIU10125-1 and 233903-50, respectively). All other cell culture supplies were from Greiner BioOne. Receptor Fusion Constructs, Cell Lines, and Media: The human T1R1 and human T1R3 umami receptors were fused at their C-terminal in frame to Renilla Luciferase (Rluc) using standard molecular cloning techniques and the codon-humanized pRluc-N3 vector from PerkinElmer (#6310220). For expression of the umami receptors and the construct encoding GFP-2/β-arrestin-2, HEK293 cells (human embryonic kidney cells, ATCC) were used using traditional transfection methods (see also below). HEK293 cells were maintained in DMEM and 10% FBS at 37° C./5% CO2. […]

N[C@@H](CCC(=O)O)C(=O)[O-].[Na+] [MSG, Monosodium glutamate]
release of intracellular calcium, T1R1/T1R3 umami receptor, average (100 μM MSG): 1170
release of intracellular calcium, T1R1/T1R3 umami receptor, meas. 1 (100 μM MSG): 1146
release of intracellular calcium, T1R1/T1R3 umami receptor, meas. 2 (100 μM MSG): 1193
release of intracellular calcium, T1R1/T1R3 umami receptor, average (1 mM MSG): 3269
release of intracellular calcium, T1R1/T1R3 umami receptor, meas. 1 (1 mM MSG): 2548
release of intracellular calcium, T1R1/T1R3 umami receptor, meas. 2 (1 mM MSG): 3990
release of intracellular calcium, T1R1/T1R3 umami receptor, average (10 mM MSG): 6749
release of intracellular calcium, T1R1/T1R3 umami receptor, meas. 1 (10 mM MSG): 5766
release of intracellular calcium, T1R1/T1R3 umami receptor, meas. 2 (10 mM MSG): 7732
T1R1/T1R3 receptor-specific signal, Calcium assay (MSG 10 mM): +
umami receptor-specific response in the calcium-based receptor assay (in words) (receptor-expressing versus control cells): umami receptor-specific responses
